Laboratory results published in patent US8551963B2, “Imidazolothiazole compounds and methods of use thereof” (Ambit Biosciences Corporation, priority 2008, dated 2013).
Values after ≈ are worked out from the molar mass of the structure shown. “Also recorded” adds a separate entry of the source. Like-named read-outs stand apart in the source and are kept apart here.

Legend:
FLT3 (N841I) = FLT3 (N841I) (Homo sapiens (Human), UniProt P36888, N841I); test: biochemical; format: binding
Description: The liganded beads were blocked with excess biotin and washed with blocking buffer (SeaBlock (Pierce), 1% BSA, 0.05% Tween 20, 1 mM DTT) to remove unbound ligand and to reduce non-specific binding. […] Test compounds were prepared as 100× stocks in DMSO and rapidly diluted into the aqueous environment. DMSO was added to control assays lacking a test compound. […] The kinase concentration in the eluates was measured by quantitative PCR. Each kinase was tested individually against each compound. Kds were determined using eleven serial threefold dilutions.

FLT3 = FLT3 (Homo sapiens (Human), UniProt P36888); test: biochemical; format: binding
Description: (§2) Competition binding assays used herein were developed, validated and performed as described in Fabian et al., Nature Biotechnology 2005, 23, 329-336. Kinases were produced as fusions to T7 phage (See, Fabian et al. or WO04/015142) or alternatively, the kinases were expressed in HEK-293 cells and subsequently tagged with DNA for PCR detection (See, WO08/005,310). […] The liganded beads were blocked with excess biotin and washed with blocking buffer (SeaBlock (Pierce), 1% BSA, 0.05% Tween 20, 1 mM DTT) to remove unbound ligand and to reduce non-specific binding. […] Test compounds were prepared as 100× stocks in DMSO and rapidly diluted into the aqueous environment. DMSO was added to control assays lacking a test compound. […] The kinase concentration in the eluates was measured by quantitative PCR. Each kinase was tested individually against each compound. Kds were determined using eleven serial threefold dilutions.

CYP2C19 [1] = biological target: T1, CYP2C19 (Homo sapiens (Human), UniProt P33261); test: Time dependant inhibition in human liver microsomes, CYP2C19; format: in vitro ADME; details: CYP2C19, 10 μM, pre-incubation 0-30 minutes
T1 sequence (P33261 whole entry, canonical isoform): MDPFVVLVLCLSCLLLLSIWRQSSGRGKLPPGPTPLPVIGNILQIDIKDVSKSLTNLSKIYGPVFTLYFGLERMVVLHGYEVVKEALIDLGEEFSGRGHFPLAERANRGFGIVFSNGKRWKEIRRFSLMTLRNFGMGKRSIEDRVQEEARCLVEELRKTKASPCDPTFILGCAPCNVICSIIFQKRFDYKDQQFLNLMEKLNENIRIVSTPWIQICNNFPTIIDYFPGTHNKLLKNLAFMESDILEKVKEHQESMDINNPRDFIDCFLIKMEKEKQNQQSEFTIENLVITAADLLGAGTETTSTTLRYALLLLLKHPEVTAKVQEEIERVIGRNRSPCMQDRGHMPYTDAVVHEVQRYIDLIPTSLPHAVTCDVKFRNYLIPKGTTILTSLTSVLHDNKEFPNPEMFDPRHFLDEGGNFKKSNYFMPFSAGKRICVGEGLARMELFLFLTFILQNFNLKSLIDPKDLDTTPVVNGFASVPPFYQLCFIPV
Description: For each CYP isoform tested, 10 μM Compound I-1 was pre-incubated with pooled male and female human liver microsomes with NADPH in a 37° C. shaking water bath in duplicate to afford a final pre-incubation assay concentration of 100 mM KPO4/pH 7.4, 10 mM MgCl2, 2 mg/mL of human liver microsome (CellzDirect lot HLM HMMC-PL020) and 1 mM NADPH (Calbiochem). At each pre-incubation time point (0, 5, 10, 20, and 30 minutes) 20 μL was removed and placed in a second 96 well plate on ice. After all pre-incubation time points were collected 180 uL of additional human microsome liver preparation containing the appropriate CYP specific substrate at its Km concentration listed in Table 11 plus NADPH, was added to each time point. The samples were incubated for an additional 10 minutes in a 37° C. shaking water bath and then quenched with 75:25 acetonitrile (ACN):water containing the appropriate internal standards listed in Table 11. After brief mixing, the plate was centrifuged and the supernatant removed for analysis by LC/MS/MS (API 4000 Qtrap) for the formation of 6-hydroxy-testosterone (CYP3A4), 4-hydroxy-mephenyloin (CYP2C19), or 6-hydroxy-taxol (CYP2C8). […] Consistent with Example 5, Compound I-1 did inhibit CYP2C8-mediated metabolite formation at 10 μM, but not in a time dependent manner.

FLT3 (D835H) = FLT3 (D835H) (Homo sapiens (Human), UniProt P36888, D835H); test: biochemical; format: binding
Description: as §2

[2] = Aqueous and surfactant solubility; format: physicochemical; details: kinetic from dmso stock, room temperature overnight
Description: After equilibration at room temperature overnight the solutions were filtered and solute concentration determined by fast gradient HPLC without further dilution of the samples. […] These analytical standards were prepared from a 500 μM intermediate stock solution made by diluting 10 μl of the 10 mM sample stocks into 190 μl of 50:50 (v/v) acetonitrile/water. Aliquots of this solution were transferred in duplicate into a 96 well plate in the amounts of 0.4, 2, 4, 20, 40, and 100 μl with the volumes made up to 200 total μl with acetonitrile/water and the plate was then heat sealed with a foil sheet. Prior to sample filtration, filters were primed with 600 μl of sample to resolve potential adsorption problems. Both sample replicates were collected through the primed filter. Duplicate determinations were made in all cases.

CYP2C19 [3] = biological target: T1, CYP2C19; test: Inhibitory constant KI in human liver microsomes, CYP2C19; format: in vitro ADME; details: for Ki: CYP2C19, global non-linear regression
Description: A 2 mM stock of Compound I-1 was prepared in acetonitrile (ACN) and serially diluted 2-fold from 2000 μM to 15.63 μM in ACN. […] Individual human liver microsome preparations containing the substrate were then incubated with Compound I-1 (final concentration range 40 μM to 0.31 μM of Compound I-1) for a final incubation concentration of 0.5 mg/mL microsome, 75 mM KPO4, 6.5 mM MgCl2, 1 mM NADPH and 2% acetonitrile (ACN). The samples were incubated in a 37° C. shaking water bath for 20 minutes then quenched with ACN:water (75:25) containing internal standards propranolol at 0.3 ng/mL and cortisone at 0.3 ng/mL. After brief mixing, the plate was centrifuged and the supernate removed for analysis by LC/MS/MS (API 4000 Qtrap) for formation of 6-hydroxy-testosterone (CYP3A4), 4-hydroxy-mephenyloin (CYP2C19) or hydroxy-taxol (CYP2C8). The data was analyzed using global non-linear regression software (GraphPad Prism) and the overall fit of the data (R^2) was used to determine if Compound I-1 was a competitive, non-competitive, or uncompetitive inhibitor. In addition the data was plotted as a Lineweaver-Burke graph (1/V versus 1/S, where V is the […] and S is the substrate concentration) for each inhibitor concentration. Based on the location of convergence (competitive and non-competitive) or non convergence (uncompetitive) of the plots at each inhibitor concentration, the type of inhibition was determined.
Global non-linear regression allows analysis of all the individual inhibitor curves simultaneously and determines the best fit value for shared parameters between the data sets, in this case KI (or KI′). The results of the global nonlinear analysis of Compound I-1 inhibition of the CYP450 isoforms 3A4, 2C19 and 2C8 are shown in Table 12.

CYP1A2 = CYP1A2 (Homo sapiens (Human), UniProt P05177); test: Cyp enzyme inhibition assay in human liver microsomes, CYP1A2; format: in vitro ADME; details: CYP1A2, substrate phenacetin
Sequence of CYP1A2 (P05177 whole entry): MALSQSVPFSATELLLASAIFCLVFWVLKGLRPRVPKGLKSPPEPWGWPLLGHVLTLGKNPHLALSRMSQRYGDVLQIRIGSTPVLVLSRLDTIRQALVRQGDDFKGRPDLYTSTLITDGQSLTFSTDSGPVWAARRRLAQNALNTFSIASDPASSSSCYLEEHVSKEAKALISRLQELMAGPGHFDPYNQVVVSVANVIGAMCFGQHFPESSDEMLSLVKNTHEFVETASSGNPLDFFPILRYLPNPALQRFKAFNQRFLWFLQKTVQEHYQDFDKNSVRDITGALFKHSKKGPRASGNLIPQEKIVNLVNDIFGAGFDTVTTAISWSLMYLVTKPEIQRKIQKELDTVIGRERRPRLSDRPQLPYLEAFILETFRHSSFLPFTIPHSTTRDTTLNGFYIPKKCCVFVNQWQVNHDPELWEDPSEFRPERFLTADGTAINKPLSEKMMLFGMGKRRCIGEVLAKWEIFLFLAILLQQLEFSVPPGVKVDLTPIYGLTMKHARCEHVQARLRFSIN
Description: (§1) The ability of the compound I-1 to inhibit human metabolizing enzymes CYP3A4, CYP2C9, […], CYP2C19 and CYP1A2, was assessed using those enzymes found collectively in human liver microsomes. The test compound I-1 was prepared as a solution in DMSO or acetonitrile and plated in duplicate rows of a 96-well plate (Nunc) for a final assay concentration of 40 μM in 0.2% DMSO (or 2% acetonitrile) in the first column and serially diluted two-fold going down the row. A known selective inhibitor of a given CYP enzyme listed in Table 8 was selected as the appropriate positive control. For each CYP enzyme inhibition assay, an appropriate enzyme-substrate mixture was prepared to afford a final assay concentration of 75 mM KPO4/pH 7.4, 6.5 mM MgCl2, 0.25 mg/mL pooled male and female human liver microsome (CellzDirect lot HMMC-PL020) with the amounts of the appropriate substrate for each CYP enzyme assay given in Table 8. The enzyme-substrate mixture was added to columns 1 through 10 and column 11 served as a negative control with enzyme solution lacking substrate. A solution of NADPH (Calbiochem) was then added to all rows except for one where NADPH would be added after the incubation period, in order to detect NADPH-independent non-CYP-mediated metabolism. The plate was briefly vortexed and left to shake in a 37° C. water bath for 20 minutes. […]

FLT3 (D835Y) = FLT3 (D835Y) (Homo sapiens (Human), UniProt P36888, D835Y); test: biochemical; format: binding
Description: as §2

FLT3 (K663Q) = FLT3 (K663Q) (Homo sapiens (Human), UniProt P36888, K663Q); test: biochemical; format: binding
Description: as §2

CYP2C9 = CYP2C9 (Homo sapiens (Human), UniProt P11712); test: Cyp enzyme inhibition assay in human liver microsomes, CYP2C9; format: in vitro ADME; details: CYP2C9, substrate Diclofenac
Sequence of CYP2C9 (P11712 whole entry): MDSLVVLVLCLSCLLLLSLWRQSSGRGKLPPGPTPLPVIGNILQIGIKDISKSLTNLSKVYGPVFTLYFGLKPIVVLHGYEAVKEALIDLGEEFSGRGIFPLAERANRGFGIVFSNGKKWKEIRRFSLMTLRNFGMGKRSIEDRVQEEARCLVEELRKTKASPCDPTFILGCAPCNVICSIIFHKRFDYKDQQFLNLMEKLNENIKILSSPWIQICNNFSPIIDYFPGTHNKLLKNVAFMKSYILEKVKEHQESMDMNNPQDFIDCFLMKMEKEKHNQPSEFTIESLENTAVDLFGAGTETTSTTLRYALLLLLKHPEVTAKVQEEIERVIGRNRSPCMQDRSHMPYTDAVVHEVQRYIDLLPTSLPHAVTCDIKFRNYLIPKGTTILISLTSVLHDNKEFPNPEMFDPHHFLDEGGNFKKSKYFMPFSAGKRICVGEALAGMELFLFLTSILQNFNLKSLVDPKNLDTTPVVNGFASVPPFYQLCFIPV
Description: as §1

CC(C)(CO)c1cc(NC(=O)Nc2ccc(-c3cn4c(n3)sc3cc(OCCN5CCOCC5)ccc34)cc2)no1 [Compound I-1, 1-[5-(2-hydroxy-1,1-dimethyl-ethyl)-isoxazol-3-yl]-3-{4-[7-(2-morpholin-4-yl-ethoxy)-benzo[d]imidazo[2,1-b]thiazol-2-yl]-phenyl}-urea]
Kd (FLT3 (N841I)): 0.77 nM | Kd (FLT3): 0.68 nM | Time dependant inhibition (CYP2C19 [1]): not a time dependant inhibitor | Kd (FLT3 (D835H)): 1.9 nM | solubility ([2]; HBSS buffer with 0.05% Polysorbate 80, pH 7.4, aqueous with cosolvent or surfactant or cyclodextrin, HBSS containing 0.05% Polysorbate 80, 2.5% DMSO, read-out: Average Aqueous Solubility, 0.05% Polysorbate 80): 2 µM (≈ 1.15 µg/mL) | solubility ([2]; Hank's balanced salt solution (HBSS) buffer, aqueous buffer, HBSS pH 7.4, 2.5% DMSO, read-out: Average Aqueous Solubility, pH 7.4): < 1 µM | Type of inhibition (CYP2C19 [3]; CYP2C19): non-competitive inhibition; also recorded: weak non-competitive inhibitor | Ki (CYP2C19 [3]; read-out: Best Fit KI, Competitive): 1700 nM | Ki (CYP2C19 [3]; read-out: Best Fit KI, Non-competitive): 10400 nM | Ki (CYP2C19 [3]; read-out: Best Fit KI′, Uncompetitive): 7400 nM | IC50 (CYP1A2): > 40000 nM | Kd (FLT3 (D835Y)): 5.5 nM | Kd (FLT3 (K663Q)): 0.69 nM | IC50 (CYP2C9): > 40000 nM
